# Columns and labels:
# melatonin receptors = target: T1, melatonin receptors (Ovis aries, UniProt P48040); test: Binding to melatonin receptors, sheep pars tuberalis cells (competition with 2-iodo-melatonin); conditions: sheep pars tuberalis membranes
# T1 construct: Sheep pars tuberalis membranes are prepared and used as target tissue; from tissue; host or cells: sheep pars tuberalis membranes
# Description: B1) Study on Sheep Pars Tuberalis Cells
# Studies of the binding of the compounds of the invention to melatonin receptors were carried out according to conventional techniques on sheep pars tuberalis cells. The pars tuberalis of the adenohypophysis is in fact characterized, in mammals, by a high density of melatonin receptors (Journal of Neuroendocrinology, 1, pp 1-4, 1989).
# 1) Sheep pars tuberalis membranes are prepared and used as target tissue in saturation experiments in order to determine the binding capacities and affinities for 2-(^125 I) iodomelatonin.
# 2) Sheep pars tuberalis membranes are used as target tissue, with the various compounds to be tested, in competitive binding experiments with respect to 2-iodo-melatonin.
# Each experiment is carried out in triplicate and a range of different concentrations is tested for each compound.
# The results make it possible to determine, after statistical treatment, the binding affinities of the compound tested.
# [1] = Foregoing pharmacological Examples (A to I), carbamides or ureas substituted for the compounds of Examples 119 and 131; conditions: in place of the compounds of Examples 119 and 131
# C3H/He mice = test: Free exploratory test in C3H/He mice; assay type: in vivo; conditions: oral
# Description: Effects in the free exploratory test in C3H/He mice
# Behavior was assessed in a box subdivided into six equal square exploratory units, which were interconnected by small doors. It could be divided in half lengthwise by closing partitions. Twenty-four hours before the test, each animal was randomly placed in one half of the apparatus, with the temporary partitions in place, in order to become familiarized with it. […]
# numbers of attempts towards the unfamiliar compartment latency of the first entry into the unfamiliar compartment time spent in the unfamiliar compartment locomotion in the unfamiliar compartment number of rears in the unfamiliar compartment locomotion in the familiar compartment number of rears in the familiar compartment
# Compounds were orally administered at doses of […] (in 1% HEC), 40 minutes before the test.
# The […] group received the vehicle under the same conditions.
# [2] = 40 minutes before test, statistically significant for the 3 tested doses
# T1 sequence (P48040 whole entry): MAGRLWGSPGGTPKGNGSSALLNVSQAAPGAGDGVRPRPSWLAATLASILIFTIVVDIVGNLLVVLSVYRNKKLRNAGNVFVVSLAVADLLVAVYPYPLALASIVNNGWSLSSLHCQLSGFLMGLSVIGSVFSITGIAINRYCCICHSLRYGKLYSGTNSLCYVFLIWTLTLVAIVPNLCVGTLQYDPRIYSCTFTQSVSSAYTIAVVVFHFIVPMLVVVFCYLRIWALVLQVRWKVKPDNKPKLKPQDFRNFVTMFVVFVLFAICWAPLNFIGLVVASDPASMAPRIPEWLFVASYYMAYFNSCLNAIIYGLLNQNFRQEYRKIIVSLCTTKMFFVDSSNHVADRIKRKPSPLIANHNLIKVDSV
smiles,measurement,setting,value
"CC(=O)NCCc1cccc2ccc3c(c12)CC(C)O3 (stereo not shown) [Example 119, 2,3-DIHYDRO-2-METHYL-4-(2-ACETAMIDOETHYL)1-NAPHTHO[2,1-b]-FURAN]",affinity for melatonin receptors (in words),melatonin receptors,extremely powerful affinity
"CNC(=O)NCCc1cccc2ccc3c(c12)CC(C)O3 (stereo not shown) [Example 120, N-[2-(2,3-DIHYDRO-2-METHYL-1-NAPHTHO[2,1-b]FURAN-4-YL)ETHYL]-N'-METHYLUREA]","results in the foregoing pharmacological Examples, compared with the compounds of Examples 119 and 131",[1],approximately equally statistically-significant results
"CC(=O)NCCc1coc2ccc3c(c12)CCCO3 [Example 131, N-[2-(8,9-Dihydro-7H-furo[3,2-f]chromen-1-yl)ethyl]acetamide]",latency of the first entry into the unfamiliar compartment,C3H/He mice; [2],dose-dependently reduced
same,locomotion in the unfamiliar compartment,C3H/He mice; [2],increased the locomotion in the unfamiliar compartment
same,numbers of attempts towards the unfamiliar compartment,C3H/He mice; [2],dose-dependently reduced
same,number of rears in the unfamiliar compartment,C3H/He mice; at 25 mg/kg (highest dose),significantly increased the number of rears in the unfamiliar compartment
same,time spent in the unfamiliar compartment,C3H/He mice; at 5 and 25 mg/kg,significantly increased the time spent in the unfamiliar compartment
